Assay: Cytotoxicity against human THP1 cells upto 50 uM treated 3 times per week for 14 days by MTT assay
Format: cell-based
Settings: thp-1, 336 h

Structure (SMILES) | Activity
Cc1ncc([N+](=O)[O-])n1CCn1cc(COc2ccc(C(C)(C)C)cc2)nn1 | Non-toxic
Cc1ncc([N+](=O)[O-])n1CCn1cc(CNc2cccc(Cl)c2)nn1 | Non-toxic
Cc1ncc([N+](=O)[O-])n1CCn1cc(CNc2ccccc2Cl)nn1 | Non-toxic
Cc1ncc([N+](=O)[O-])n1CCn1cc(CNc2ccc(F)cc2)nn1 | Non-toxic
Cc1cccc(OCc2cn(CCn3c([N+](=O)[O-])cnc3C)nn2)c1C | Non-toxic
Cc1ncc([N+](=O)[O-])n1CCn1cc(COc2ccc(Cl)cc2Cl)nn1 | Non-toxic
Cc1ncc([N+](=O)[O-])n1CCn1cc(COc2cccc3ccccc23)nn1 | Non-toxic
Cc1ncc([N+](=O)[O-])n1CCn1cc(COCc2ccccc2)nn1 | Non-toxic
Cc1ncc([N+](=O)[O-])n1CCn1cc(CNc2ccc(Br)cc2)nn1 | Non-toxic
Cc1ncc([N+](=O)[O-])n1CCn1cc(CNc2ccccc2)nn1 | Non-toxic
Cc1ccccc1NCc1cn(CCn2c([N+](=O)[O-])cnc2C)nn1 | Non-toxic
Cc1ncc([N+](=O)[O-])n1CCn1cc([Si](C)(C)C)nn1 | Non-toxic
Cc1ncc([N+](=O)[O-])n1CCn1cc(COc2ccc(C(C)C)cc2)nn1 | Non-toxic
CCCc1cn(CCn2c([N+](=O)[O-])cnc2C)nn1 | Non-toxic
Cc1ncc([N+](=O)[O-])n1CCn1cc(CNc2ccccc2F)nn1 | Non-toxic
Cc1ncc([N+](=O)[O-])n1CCn1cc(CNc2cc(Cl)c(Cl)cc2Cl)nn1 | Non-toxic
Cc1ncc([N+](=O)[O-])n1CCn1cc(CNc2ccccn2)nn1 | Non-toxic
Cc1ncc([N+](=O)[O-])n1CCn1cc(COc2c(C(C)(C)C)cc(C(C)(C)C)cc2C(C)(C)C)nn1 | Non-toxic

From ChEMBL document CHEMBL3792373, “Anti-methicillin resistant Staphylococcus aureus activity, synergism with oxacillin and molecular docking studies of metronidazole-triazole hybrids” (Eur J Med Chem, 2016)
